Measured values taken from patent publication US9914731B2, “Pyrazolo[1,5-a]pyridine derivatives and methods of their use” (Ignyta, Inc., priority 2013, dated 2018).

These compounds were tested against recombinant human baculovirus-expressed cMET (Homo sapiens (Human), UniProt P08581) (assay: c-MET kinase assay (HTRF KinEASE)). Conditions: average of two or more determinations; read-out: c-MET IC50.
Type: biochemical

Row | SMILES | IC50
1 | CC(C)n1cc(C(=O)Nc2ccc(Oc3cc(-c4cnccn4)cn4nccc34)c(F)c2)c(=O)n(-c2ccc(F)cc2)c1=O [Example 135, 3-(4-Fluoro-phenyl)-1-isopropyl-2,4-dioxo-1,2,3,4-tetrahydro-pyrimidine-5-carboxylic acid[3-fluoro-4-(6-pyrazin-2-yl-pyrazolo[1,5-a]pyridin-4-yloxy)-phenyl]-amide] | 10 to 100 nM
2 | CCn1cc(C(=O)Nc2ccc(Oc3cc(-c4cccc(C)n4)cn4nccc34)c(F)c2)c(=O)n(-c2ccc(F)cc2)c1=O [Example 136, 1-Ethyl-3-(4-fluoro-phenyl)-2,4-dioxo-1,2,3,4-tetrahydro-pyrimidine-5-carboxylic acid{3-fluoro-4-[6-(6-methyl-pyridin-2-yl)-pyrazolo[1,5-a]pyridin-4-yloxy]-phenyl}-amide] | 10 to 100 nM
3 | Cc1cccc(-c2cc(Oc3ccc(NC(=O)c4cn(C(C)C)c(=O)n(-c5ccc(F)cc5)c4=O)cc3F)c3ccnn3c2)n1 [Example 137, 3-(4-Fluoro-phenyl)-1-isopropyl-2,4-dioxo-1,2,3,4-tetrahydro-pyrimidine-5-carboxylic acid{3-fluoro-4-[6-(6-methyl-pyridin-2-yl)-pyrazolo[1,5-a]pyridin-4-yloxy]-phenyl}-amide] | 10 to 100 nM
4 | CC(C)n1cc(C(=O)Nc2ccc(Oc3cc(NS(C)(=O)=O)cn4nccc34)c(F)c2)c(=O)n(-c2ccc(F)cc2)c1=O [Example 141, 3-(4-Fluoro-phenyl)-1-isopropyl-2,4-dioxo-1,2,3,4-tetrahydro-pyrimidine-5-carboxylic acid[3-fluoro-4-(6-methanesulfonylamino-pyrazolo[1,5-a]pyridin-4-yloxy)-phenyl]-amide] | 10 to 100 nM
5 | CC(=O)Nc1cc(Oc2ccc(NC(=O)c3cn(C(C)C)c(=O)n(-c4ccc(F)cc4)c3=O)cc2F)c2ccnn2c1 [Example 143, 3-(4-Fluoro-phenyl)-1-isopropyl-2,4-dioxo-1,2,3,4-tetrahydro-pyrimidine-5-carboxylic acid[4-(6-acetylamino-pyrazolo[1,5-a]pyridin-4-yloxy)-3-fluoro-phenyl]-amide] | < 10 nM

Next, values leading:

Row | IC50 | SMILES
6 | < 10 nM | CC(C)n1cc(C(=O)Nc2ccc(Oc3cc(C(=O)N(C)C)cn4nccc34)c(F)c2)c(=O)n(-c2ccc(F)cc2)c1=O [Example 138, 4-(2-Fluoro-4-{[3-(4-fluoro-phenyl)-1-isopropyl-2,4-dioxo-1,2,3,4-tetrahydro-pyrimidine-5-carbonyl]-amino}-phenoxy)-pyrazolo[1,5-a]pyridine-6-carboxylic acid dimethylamide]
7 | < 10 nM | CCn1cc(C(=O)Nc2ccc(Oc3cc(C(=O)N(C)C)cn4nccc34)c(F)c2)c(=O)n(-c2ccc(F)cc2)c1=O [Example 139, 4-(4-{[1-Ethyl-3-(4-fluoro-phenyl)-2,4-dioxo-1,2,3,4-tetrahydro-pyrimidine-5-carbonyl]-amino}-2-fluoro-phenoxy)-pyrazolo[1,5-a]pyridine-6-carboxylic acid dimethylamide]
8 | 10 to 100 nM | CCn1cc(C(=O)Nc2ccc(Oc3cc(NS(C)(=O)=O)cn4nccc34)c(F)c2)c(=O)n(-c2ccc(F)cc2)c1=O [Example 140, 1-Ethyl-3-(4-fluoro-phenyl)-2,4-dioxo-1,2,3,4-tetrahydro-pyrimidine-5-carboxylic acid[3-fluoro-4-(6-methanesulfonylamino-pyrazolo[1,5-a]pyridin-4-yloxy)-phenyl]-amide]
9 | < 10 nM | CCn1cc(C(=O)Nc2ccc(Oc3cc(NC(=O)N(C)C)cn4nccc34)c(F)c2)c(=O)n(-c2ccc(F)cc2)c1=O [Example 146, 1-Ethyl-3-(4-fluoro-phenyl)-2,4-dioxo-1,2,3,4-tetrahydro-pyrimidine-5-carboxylic acid {4-[6-(3,3-dimethyl-urea)-pyrazolo[1,5-a]pyridin-4-yloxy]-3-fluoro-phenyl}-amide]
